{
  "source": "patent US9000025B2",
  "about": "“Autotaxin inhibitors and uses thereof” (Amira Pharmaceuticals, Inc., priority 2010, dated 2015)",
  "data": [
    {"target": "T1, autotaxin (ATX) (Homo sapiens, UniProt Q13822)", "T1 construct": "conditioned medium from the human melanoma cell line, MDA-MB-4355, which endogenously expresses autotaxin; host or cells: MDA-MB-435S human melanoma cells; serum-free conditioned medium, concentrated 20-fold", "assay": "Native Autotaxin Choline Release Assay", "format": "biochemical", "conditions": "autotaxin in conditioned medium from human melanoma cell line; choline released from LPC; read-out: MDA-MB-435S Assay IC50", "description": "ATX activity is determined by measuring the amount of choline realeased from the substrate, lyosphophatidylcholine (LPC). […] After reaching confluency, the cells are washed twice with phosphate-buffered saline (PBS) then cultured for 48 hours in phenol-red free, serum-free DMEM containing sodium pyruvate. […] 100 μl of a color mix which contains 4.5 mM 4-aminoantipyrine, 2.7 mM N-ethyl-N-(2-hydroxy-3-sulfopropyl)-m-toluidine, 21 units/ml horseradish peroxidase and 3 units/ml choline oxidase in 50 mM Tris, pH 8, 4.5 mM MgCl2 is added and the incubation continued at 37° C. for 10 minutes before reading the absorbance at 555 nm. The concentration of released choline in the sample is determined from a choline standard curve and is equal to the concentration of LPA produced.", "units": {"IC50": "nM"}, "values": [
      {"smiles": "CCn1cc(-n2c(C)c(Sc3cc(F)cc(C(=O)O)c3)c3ccc(Cl)cc32)cn1", "note": "[Compound 1-129, 3-[6-Chloro-1-(1-ethyl-1H-pyrazol-4-yl)-2-methyl-1H-indol-3-ylsulfanyl]-5-fluoro-benzoic acid]", "IC50": "< 300"},
      {"smiles": "Cc1ccc(-n2cc(-n3c(C)c(Sc4cccc(C(=O)O)c4)c4ccc(Cl)cc43)cn2)cc1", "note": "[Compound 1-130, 3-[6-Chloro-2-methyl-1-(1-p-tolyl-1H-pyrazol-4-yl)-1H-indol-3-ylsulfanyl]-benzoic acid]", "IC50": "< 300"},
      {"smiles": "CCCn1cc(-n2c(C)c(Sc3cccc(C(=O)O)c3F)c3ccc(Cl)cc32)cn1", "note": "[Compound 1-131, 3-[6-Chloro-2-methyl-1-(1-propyl-1H-pyrazol-4-yl)-1H-indol-3-ylsulfanyl]-2-fluoro-benzoic acid]", "IC50": "< 300"},
      {"smiles": "CCn1cc(-n2c(C)c(Sc3ccc(C)c(C(=O)O)c3)c3ccc(Cl)cc32)cn1", "note": "[Compound 1-132, 5-[6-Chloro-1-(1-ethyl-1H-pyrazol-4-yl)-2-methyl-1H-indol-3-ylsulfanyl]-2-methyl-benzoic acid]", "IC50": "< 300"},
      {"smiles": "Cc1[nH]c2cc(Cl)ccc2c1Sc1cccc(B(O)O)c1", "note": "[Compound 2-1, 3-(6-Chloro-2-methyl-1H-indol-3-ylsulfanyl)-phenylboronic acid]", "IC50": "> 1000"},
      {"smiles": "COC(=O)c1cccc(Oc2c(C)n(Cc3ccccc3)c3cc(Cl)ccc23)c1", "note": "[Compound 2-3, 3-(1-Benzyl-6-chloro-2-methyl-1H-indol-3-yloxy)-benzoic acid methyl ester]", "IC50": "> 1000"},
      {"smiles": "Cc1c(Oc2cccc(CO)c2)c2ccc(Cl)cc2n1Cc1ccccc1", "note": "[Compound 2-4, [3-(1-Benzyl-6-chloro-2-methyl-1H-indol-3-yloxy)-phenyl]-methanol]", "IC50": "> 1000"},
      {"smiles": "Cc1c(Oc2cccc(CC#N)c2)c2ccc(Cl)cc2n1Cc1ccccc1", "note": "[Compound 2-5, [3-(1-Benzyl-6-chloro-2-methyl-1H-indol-3-yloxy)-phenyl]-acetonitrile]", "IC50": "> 1000"},
      {"smiles": "Cc1c(Oc2cccc(Cc3nn[nH]n3)c2)c2ccc(Cl)cc2n1Cc1ccccc1", "note": "[Compound 2-6, 1-Benzyl-6-chloro-2-methyl-3-[3-(2H-tetrazol-5-ylmethyl)-phenoxy]-1H-indole]", "IC50": "> 1000"},
      {"smiles": "Cc1c(Sc2cccc(/C=C/C(=O)O)c2)c2ccc(Cl)cc2n1Cc1ccccc1", "note": "[Compound 2-7, (E)-3-[3-(1-Benzyl-6-chloro-2-methyl-1H-indol-3-ylsulfanyl)-phenyl]-acrylic acid]", "IC50": "> 1000"},
      {"smiles": "Cc1c(Sc2cccc(Cc3nn[nH]n3)c2)c2ccc(Cl)cc2n1Cc1ccccc1", "note": "[Compound 2-8, 1-Benzyl-6-chloro-2-methyl-3-[3-(2H-tetrazol-5-ylmethyl)-phenylsulfanyl]-1H-indole]", "IC50": "> 1000"},
      {"smiles": "Cc1c(Sc2cccc(-c3nn[nH]n3)c2)c2ccc(Cl)cc2n1Cc1ccccc1", "note": "[Compound 2-9, 1-Benzyl-6-chloro-2-methyl-3-[3-(2H-tetrazol-5-yl)-phenylsulfanyl]-1H-indole]", "IC50": "> 1000"},
      {"smiles": "Cc1c(Sc2cccc(C(=O)NCC[N+](C)(C)C)c2)c2ccc(Br)cc2n1Cc1ccccc1", "note": "[Compound 2-10, {2-[3-(1-Benzyl-6-bromo-2-methyl-1H-indol-3-ylsulfanyl)-benzoylamino]-ethyl}-trimethyl-ammonium]", "IC50": "> 1000"},
      {"smiles": "Cc1c(Sc2cccc(C(=O)NCCN(C)C)c2)c2ccc(Br)cc2n1Cc1ccccc1", "note": "[Compound 2-11, 3-(1-Benzyl-6-bromo-2-methyl-1H-indol-3-ylsulfanyl)-N-(2-dimethylamino-ethyl)-benzamide]", "IC50": "> 1000"},
      {"smiles": "Cc1c(Sc2cccc(B(O)O)c2)c2ccc(Cl)cc2n1-c1cccnc1", "note": "[Compound 2-12, 3-(6-Chloro-2-methyl-1-pyridin-3-yl-1H-indol-3-ylsulfanyl)-phenylboronic acid]", "IC50": "> 1000"},
      {"smiles": "Cc1[nH]c2cc(Cl)ccc2c1Sc1ccccc1CC(=O)O", "note": "[Compound 3-1, [2-(6-Chloro-2-methyl-1H-indol-3-ylsulfanyl)-phenyl]-acetic acid]", "IC50": "> 1000"},
      {"smiles": "Cc1[nH]c2cc(Cl)ccc2c1Sc1ccc(CC(=O)O)cc1", "note": "[Compound 3-2, [4-(6-Chloro-2-methyl-1H-indol-3-ylsulfanyl)-phenyl]-acetic acid]", "IC50": "> 1000"},
      {"smiles": "Cc1[nH]c2ccc(Cl)cc2c1Sc1cccc(CC(=O)O)c1", "note": "[Compound 3-3, [3-(5-Chloro-2-methyl-1H-indol-3-ylsulfanyl)-phenyl]-acetic acid]", "IC50": "> 1000"},
      {"smiles": "Cc1[nH]c2c(Cl)cccc2c1Sc1cccc(CC(=O)O)c1", "note": "[Compound 3-4, [3-(7-Chloro-2-methyl-1H-indol-3-ylsulfanyl)-phenyl]-acetic acid]", "IC50": "> 1000"},
      {"smiles": "Cc1[nH]c2cccc(F)c2c1Sc1cccc(CC(=O)O)c1", "note": "[Compound 3-5, [3-(4-Fluoro-2-methyl-1H-indol-3-ylsulfanyl)-phenyl]-acetic acid]", "IC50": "> 1000"},
      {"smiles": "COc1cccc2[nH]c(C)c(Sc3cccc(CC(=O)O)c3)c12", "note": "[Compound 3-6, [3-(4-Methoxy-2-methyl-1H-indol-3-ylsulfanyl)-phenyl]-acetic acid]", "IC50": "> 1000"},
      {"smiles": "O=C(O)c1cccc(Sc2c(C(F)(F)F)[nH]c3cc(Cl)ccc23)c1", "note": "[Compound 3-7, 3-(6-Chloro-2-trifluoromethyl-1H-indol-3-ylsulfanyl)-benzoic acid]", "IC50": "> 1000"},
      {"smiles": "Cc1[nH]c2cccc(Cl)c2c1Sc1cccc(B(O)O)c1", "note": "[Compound 3-9, 3-(4-Chloro-2-methyl-1H-indol-3-ylsulfanyl)-phenylboronic acid]", "IC50": "> 1000"},
      {"smiles": "Cc1c(Sc2ccccc2CC(=O)O)c2ccc(Cl)cc2n1C", "note": "[Compound 3-10, [2-(6-Chloro-1,2-dimethyl-1H-indol-3-ylsulfanyl)-phenyl]-acetic acid]", "IC50": "> 1000"},
      {"smiles": "Cc1c(Sc2ccc(CC(=O)O)cc2)c2ccc(Cl)cc2n1C", "note": "[Compound 3-11, [4-(6-Chloro-1,2-dimethyl-1H-indol-3-ylsulfanyl)-phenyl]-acetic acid]", "IC50": "> 1000"},
      {"smiles": "Cc1c(Sc2cccc(CC(=O)O)c2)c2cc(Cl)ccc2n1C", "note": "[Compound 3-12, [3-(5-Chloro-1,2-dimethyl-1H-indol-3-ylsulfanyl)-phenyl]-acetic acid]", "IC50": "> 1000"},
      {"smiles": "O=C(O)c1cccc(Sc2c(C(F)(F)F)n(Cc3ccccc3)c3cc(Cl)ccc23)c1", "note": "[Compound 3-13, 3-(1-Benzyl-6-chloro-2-trifluoromethyl-1H-indol-3-ylsulfanyl)-benzoic acid]", "IC50": "> 1000"},
      {"smiles": "CCc1c(Sc2cccc(C(=O)O)c2)c2ccc(Cl)cc2n1Cc1ccccc1", "note": "[Compound 3-15, 3-(1-Benzyl-6-chloro-2-ethyl-1H-indol-3-ylsulfanyl)-benzoic acid]", "IC50": "> 1000"},
      {"smiles": "CCn1cc(-n2c(C)c(Sc3cccc(C(=O)O)c3)c3ccc(Cl)c(F)c32)cn1", "note": "[Compound 3-16, 3-[6-Chloro-1-(1-ethyl-1H-pyrazol-4-yl)-7-fluoro-2-methyl-1H-indol-3-ylsulfanyl]-benzoic acid]", "IC50": "< 300"},
      {"smiles": "O=C(O)c1cccc(Sc2cn(Cc3ccccc3)c3cc(Cl)ccc23)c1", "note": "[Compound 3-17, 3-(1-Benzyl-6-chloro-1H-indol-3-ylsulfanyl)-benzoic acid]", "IC50": "300 to 1000"},
      {"smiles": "O=C(O)c1cccc(Sc2cn(-c3cccnc3)c3cc(Cl)ccc23)c1", "note": "[Compound 3-19, 3-(6-Chloro-1-pyridin-3-yl-1H-indol-3-ylsulfanyl)-benzoic acid]", "IC50": "300 to 1000"},
      {"smiles": "Cc1c(Sc2cccc(C(C)C(=O)O)c2)c2ccc(Cl)cc2n1-c1cccnc1", "note": "(stereo not shown) [Compound 3-20, 2-[3-(6-Chloro-2-methyl-1-pyridin-3-yl-1H-indol-3-ylsulfanyl)-phenyl]-propionic acid]", "IC50": "< 300"},
      {"smiles": "CCn1cc(-n2c(C)c(Sc3cccc(C(=O)O)c3)c3ccc(Cl)c(C)c32)cn1", "note": "[Compound 3-21, 3-[6-Chloro-1-(1-ethyl-1H-pyrazol-4-yl)-2,7-dimethyl-1H-indol-3-ylsulfanyl]-benzoic acid]", "IC50": "< 300"},
      {"smiles": "Cc1cncc(-n2c(C)c(Sc3cccc(C(=O)O)c3)c3ccc(Cl)c(F)c32)c1", "note": "[Compound 3-22, 3-[6-Chloro-7-fluoro-2-methyl-1-(5-methyl-pyridin-3-yl)-1H-indol-3-ylsulfanyl]-benzoic acid]", "IC50": "< 300"},
      {"smiles": "Cc1c(Sc2cccc(C(=O)O)c2)c2ccc(Cl)c(F)c2n1-c1cnn(-c2ccccc2)c1", "note": "[Compound 3-23, 3-[6-Chloro-7-fluoro-2-methyl-1-(1-phenyl-1H-pyrazol-4-yl)-1H-indol-3-ylsulfanyl]-benzoic acid]", "IC50": "< 300"},
      {"smiles": "CCCn1cc(-n2c(C)c(Sc3cccc(C(=O)O)c3)c3ccc(Cl)c(F)c32)cn1", "note": "[Compound 3-24, 3-[6-Chloro-7-fluoro-2-methyl-1-(1-propyl-1H-pyrazol-4-yl)-1H-indol-3-ylsulfanyl]-benzoic acid]", "IC50": "< 300"},
      {"smiles": "CCc1cncc(-n2c(C)c(Sc3cccc(C(=O)O)c3)c3ccc(Cl)c(F)c32)c1", "note": "[Compound 3-25, 3-[6-Chloro-1-(5-ethyl-pyridin-3-yl)-7-fluoro-2-methyl-1H-indol-3-ylsulfanyl]-benzoic acid]", "IC50": "< 300"},
      {"smiles": "CCn1cc(-n2c(C)c(Sc3cccc(C(=O)O)c3)c3cc(F)c(Cl)cc32)cn1", "note": "[Compound 3-26, 3-[6-Chloro-1-(1-ethyl-1H-pyrazol-4-yl)-5-fluoro-2-methyl-1H-indol-3-ylsulfanyl]-benzoic acid]", "IC50": "< 300"},
      {"smiles": "CCCn1cc(-n2c(C)c(Sc3cccc(C(=O)O)c3)c3cc(F)c(Cl)cc32)cn1", "note": "[Compound 3-27, 3-[6-Chloro-5-fluoro-2-methyl-1-(1-propyl-1H-pyrazol-4-yl)-1H-indol-3-ylsulfanyl]-benzoic acid]", "IC50": "< 300"},
      {"smiles": "CCn1cc(-n2c(C)c(Sc3cccc(CC(=O)O)c3)c3ccc(Cl)c(F)c32)cn1", "note": "[Compound 3-28, {3-[6-Chloro-1-(1-ethyl-1H-pyrazol-4-yl)-7-fluoro-2-methyl-1H-indol-3-ylsulfanyl]-phenyl}-acetic acid]", "IC50": "< 300"}
    ]}
  ]
}
